Results: patent publication US9527859B2, “Amidopyridine derivative and use thereof” (Mitsubishi Tanabe Pharma Corporation, priority 2012, dated 2016)

Tested on: production of IL-17 in mouse splenocytes stimulated by recombinant mouse interleukin-23
Assay: Production of IL-17 induced when mouse splenocytes were stimulated by rm-IL-23 (ELISA)
Assay type: cell-based
Conditions: Splenocyte, inhibition of IL-17 production, rm-IL-23 1 nmol/L, 72 hours
Protocol: Effect on Production of IL-17 Induced when Mouse Splenocytes were Stimulated by Recombinant Mouse Interleukin-23 (rm-IL-23)
RPMI1640 media (Sigma-Aldrich) were used as a medium, to which 50 units/mL penicillin G potassium/50 μg/mL streptomycin (Gibco) and […] 2-mercaptoethanol (Sigma-Aldrich) were added, and then thereto was added 10% of fetal calf serum (FCS; Cell Culture Technology) which was treated at 56° C. for 30 minutes to be inactivated, and the mixture was used in the Test. The test compound was dissolved in dimethylsulfoxide and then diluted with 10% FCS-containing RPMI1640 medium to a desired concentration to be used. The spleens were aseptically taken out from 6 to 7 week-old male DBA/1J mice (Charles River Japan, Inc.) and a single cell suspension of splenocytes was prepared, which was hemolyzed by hypotonic treatment with a mixed solution of 0.83% aqueous solution of ammonium chloride and Tris-HCl buffer of pH 7.65 (9:1). A cell suspension prepared by using 10% FCS-containing RPMI1640 medium was added to a flat-bottomed 96 well microtestplate (Coaster) at 2×10^5 cells/well. Thereto were added test compounds and rm-IL-23 (R&D systems) were diluted with a medium to 1 to 1,000 nmol/L and 1 nmol/L of the final concentration, respectively, and the mixture was cultured at 37° C., 5% carbon dioxide and 95% air for 72 hours. After completion of the culture, culture supernatant was sampled and production amounts of IL-17 therein were determined by ELISA method. After sampling the supernatant, WST-8 (Seikagaku Corporation) was added at 10 μl/well and cultured at 37° C., 5% carbon dioxide and 95% air for 4 hours. Then, absorbance (O.D.: Optical Density) at 450 nm was measured by a microplate reader and the value was adopted as an index of cell survivability. An inhibition rate was calculated according to the following formula on the basis of an average of production amounts of IL-17 and O.D. values of the well containing a test compound of each concentration. Inhibition (%)=(1−(Average value of well with addition of test compound)/(Average value of well without addition of test compound))×100
Based on the dose-response curve obtained by plotting the inhibition rate in the longitudinal axis and the concentration in the horizontal axis, the concentration of the compound which inhibits the level to 50% of the value of the control group (IC50) (nmol/L) was determined by linear regression analysis.

Structure (SMILES)	IC50 [nM]
CC(=O)OC(C)C1CCN(c2ncc(NC(=O)c3cnn(-c4ccc(C(F)(F)F)cn4)c3C)cc2C)CC1 (stereo not drawn) [Example 52, acetic acid {1-[1-(3-methyl-5-{5-methyl-1-[5-(trifluoromethyl)pyridin-2-yl]-1H-pyrazole-4-carboxamide}pyridin-2-yl)piperidin-4-yl]ethyl}ester]	53.1
COC(C)C1CCN(c2ncc(NC(=O)c3cnn(-c4ccc(C(F)(F)F)cn4)c3C)cc2C)CC1 (stereo not drawn) [Example 53, N-{6-[4-(1-methoxyethyl)piperidin-1-yl]-5-methylpyridin-3-yl}-5-methyl-1-[5-(trifluoromethyl)pyridin-2-yl]-1H-pyrazole-4-carboxamide]	51.8
Cc1cc(NC(=O)c2cnn(-c3ccc(F)cc3)c2C)cnc1N1CCC(C(C)(C)O)CC1 [Example 54, 1-(4-fluorophenyl)-N-{6-[4-(1-hydroxy-1-methylethyl)piperidin-1-yl]-5-methylpyridin-3-yl}-5-methyl-1H-pyrazole-4-carboxamide]	51
Cc1cc(NC(=O)c2cnn(-c3ccc(C(F)(F)F)cn3)c2C)cnc1N1CCC(C(C)O)CC1 (stereo not drawn) [Example 55, N-{6-[4-(1-hydroxyethyl)piperidin-1-yl]-5-methylpyridin-3-yl}-5-methyl-1-[5-(trifluoromethyl)pyridin-2-yl]-1H-pyrazole-4-carboxamide]	49.6
Cc1ccc(-n2ncc(C(=O)Nc3cnc(N4CCC(C(C)(C)O)CC4)c(C)c3)c2C)cc1 [Example 56, N-{6-[4-(1-hydroxy-1-methylethyl)piperidin-1-yl]-5-methylpyridin-3-yl}-5-methyl-1-(4-methylphenyl)-1H-pyrazole-4-carboxamide]	44.4
Cc1ccc(-n2ncc(C(=O)Nc3cnc(N4CCC(CC(C)(C)O)CC4)c(C)c3)c2C)nc1 [Example 57, N-{6-[4-(2-hydroxy-2-methylpropyl)piperidin-1-yl]-5-methylpyridin-3-yl}-5-methyl-1-(5-methylpyridin-2-yl)-1H-pyrazole-4-carboxamide]	36.7
Cc1cc(NC(=O)c2cnn(-c3ccc(Cl)cn3)c2C)cnc1N1CCC(C(C)(C)O)CC1 [Example 58, 1-(5-chloropyridin-2-yl)-N-{6-[4-(1-hydroxy-1-methylethyl)piperidin-1-yl]-5-methylpyridin-3-yl}-5-methyl-1H-pyrazole-4-carboxamide]	33
Cc1cc(NC(=O)c2cnn(-c3ncc(Cl)cc3Cl)c2C)cnc1N1CCC(C(C)(C)O)CC1 [Example 59, 1-(3,5-dichloropyridin-2-yl)-N-{6-[4-(1-hydroxy-1-methylethyl)piperidin-1-yl]-5-methylpyridin-3-yl}-5-methyl-1H-pyrazole-4-carboxamide]	31.8
Cc1cc(NC(=O)c2cnn(-c3ccc(F)cn3)c2C)cnc1N1CCC(CC(C)(C)O)CC1 [Example 60, 1-(5-fluoropyridin-2-yl)-N-{6-[4-(2-hydroxy-2-methylpropyl)piperidin-1-yl]-5-methylpyridin-3-yl}-5-methyl-1H-pyrazole-4-carboxamide]	30.4
Cc1cc(NC(=O)c2cnn(-c3ccc(C(F)(F)F)cc3)c2C)cnc1N1CCC(C(C)(C)O)CC1 [Example 61, N-{6-[4-(1-hydroxy-1-methylethyl)piperidin-1-yl]-5-methylpyridin-3-yl}-5-methyl-1-[4-(trifluoromethyl)phenyl]-1H-pyrazole-4-carboxamide]	19.4
Cc1cc(NC(=O)c2cnn(-c3ccc(C(F)(F)F)cn3)c2C)cnc1N1CCC(C(C)(C)O)CC1 [Example 62, N-{6-[4-(1-hydroxy-1-methylethyl)piperidin-1-yl]-5-methylpyridin-3-yl}-5-methyl-1-[5-(trifluoromethyl)pyridin-2-yl]-1H-pyrazole-4-carboxamide]	17
Cc1cc(NC(=O)c2cnn(-c3ccc(Cl)cc3)c2C)cnc1N1CCC(C(C)(C)O)CC1 [Example 63, 1-(4-chlorophenyl)-N-{6-[4-(1-hydroxy-1-methylethyl)piperidin-1-yl]-5-methylpyridin-3-yl}-5-methyl-1H-pyrazole-4-carboxamide]	15.6
Cc1cc(NC(=O)c2cnn(-c3ccc(C4CC4)cn3)c2C)cnc1N1CCC(CC(C)(C)O)CC1 [Example 64, 1-(5-cyclopropylpyridin-2-yl)-N-{6-[4-(2-hydroxy-2-methylpropyl)piperidin-1-yl]-5-methylpyridin-3-yl}-5-methyl-1H-pyrazole-4-carboxamide]	12
Cc1cc(NC(=O)c2cnn(-c3ccc(C(F)(F)F)cn3)c2C)cnc1N1CCC(CC(C)(C)O)CC1 [Example 65, N-{6-[4-(2-hydroxy-2-methylpropyl)piperidin-1-yl]-5-methylpyridin-3-yl}-5-methyl-1-[5-(trifluoromethyl)pyridin-2-yl]-1H-pyrazole-4-carboxamide]	5.35
Cc1c(C(=O)Nc2cnc(N3CCC(=O)CC3)c(C3CC3)c2)cnn1-c1ccc(Cl)cc1 [Example 70, 1-(4-chlorophenyl)-N-[5-cyclopropyl-6-(piperidin-4-on-1-yl)pyridin-3-yl]-5-methyl-1H-pyrazole-4-carboxamide]	205
Cc1c(C(=O)Nc2cnc(N3CCC(CCO)CC3)c(Cl)c2)cnn1-c1ccc(Cl)cc1 [Example 74, N-{5-chloro-6-[4-(2-hydroxyethyl)piperidin-1-yl]pyridin-3-yl}-1-(4-chlorophenyl)-5-methyl-1H-pyrazole-4-carboxamide]	87.7
Cc1cc(NC(=O)c2c[nH]c(-c3ccc(C(F)(F)F)cc3)n2)cnc1N1CCC(C(C)(C)O)CC1 [Example 75, N-{6-[4-(1-hydroxy-1-methylethyl)piperidin-1-yl]-5-methylpyridin-3-yl}-2-[4-(trifluoromethyl)phenyl]-1H-imidazole-4-carboxamide]	109
Cc1cc(NC(=O)c2cnc(-c3ccc(C(F)(F)F)cc3)n2C)cnc1N1CCC(C(C)(C)O)CC1 [Example 76, N-{6-[4-(1-hydroxy-1-methylethyl)piperidin-1-yl]-5-methylpyridin-3-yl}-3-methyl-2-[4-(trifluoromethyl)phenyl]-3H-imidazole-4-carboxamide]	30.4
Cc1cc(NC(=O)c2ccc(-c3ccc(Cl)cc3)s2)cnc1N1CCC(C(C)(C)O)CC1 [Example 78, 5-(4-chlorophenyl)-N-{6-[4-(1-hydroxy-1-methylethyl)piperidin-1-yl]-5-methylpyridin-3-yl}thiophene-2-carboxamide]	15.6
Cc1cc(NC(=O)c2csc(-c3ccc(Cl)cc3)c2)cnc1N1CCC(C(C)(C)O)CC1 [Example 79, 2-(4-chlorophenyl)-N-{6-[4-(1-hydroxy-1-methylethyl)piperidin-1-yl]-5-methylpyridin-3-yl}thiophene-4-carboxamide]	43.6
Cc1cc(NC(=O)c2cc(-c3ccc(Cl)cc3)cs2)cnc1N1CCC(C(C)(C)O)CC1 [Example 80, 4-(4-chlorophenyl)-N-{6-[4-(1-hydroxy-1-methylethyl)piperidin-1-yl]-5-methylpyridin-3-yl}thiophene-2-carboxamide]	185
Cc1cc(NC(=O)c2cnc(-c3ccc(Cl)cc3)s2)cnc1N1CCC(C(C)(C)O)CC1 [Example 81, 2-(4-chlorophenyl)-N-{6-[4-(1-hydroxy-1-methylethyl)piperidin-1-yl]-5-methylpyridin-3-yl}thiazole-5-carboxamide]	66.8
Cc1cc(NC(=O)c2csc(-c3ccc(Cl)cc3)n2)cnc1N1CCC(C(C)(C)O)CC1 [Example 82, 2-(4-chlorophenyl)-N-{6-[4-(1-hydroxy-1-methylethyl)piperidin-1-yl]-5-methylpyridin-3-yl}thiazole-4-carboxamide]	91.1
Cc1cc(NC(=O)c2cnn(-c3ccc(Cl)cc3)n2)cnc1N1CCC(C(C)(C)O)CC1 [Example 85, 2-(4-chlorophenyl)-N-{6-[4-(1-hydroxy-1-methylethyl)piperidin-1-yl]-5-methylpyridin-3-yl}-2H-[1,2,3]triazole-4-carboxamide]	67.6
